Source: BigSolDB 2.1

NC(=O)[C@@H]1CCCN1
solubility (mole fraction)
Details | in DMF | in THF | in acetone | in acetonitrile | in cyclohexane | in ethyl acetate | in isopropanol | in n-heptane | in n-hexane | in n-propanol
278.15 K | 0.0422 | 0.0621 | 0.0644 | 0.0557 | 6e-05 | 0.0134 | 0.0532 | 0.00025 | 6e-05 | 0.0467
283.15 K | 0.0578 | 0.075 | 0.078 | 0.0634 | 9e-05 | 0.0179 | 0.0618 | 0.00036 | 9e-05 | 0.0597
288.15 K | 0.0758 | 0.0885 | 0.0956 | 0.073 | 0.00014 | 0.0242 | 0.0795 | 0.00049 | 0.00015 | 0.0753
293.15 K | 0.0976 | 0.107 | 0.113 | 0.0838 | 0.00022 | 0.0315 | 0.0995 | 0.00068 | 0.00023 | 0.0933
298.15 K | 0.123 | 0.129 | 0.133 | 0.0951 | 0.00032 | 0.042 | 0.125 | 0.00096 | 0.00032 | 0.111
303.15 K | 0.156 | 0.156 | 0.154 | 0.106 | 0.00051 | 0.0549 | 0.153 | 0.00131 | 0.00051 | 0.13
308.15 K | 0.194 | 0.189 | 0.177 | 0.116 | 0.00079 | 0.0711 | 0.19 | 0.0018 | 0.00077 | 0.16
313.15 K | 0.238 | 0.228 | 0.2 | 0.127 | 0.00124 | 0.0927 | 0.23 | 0.00239 | 0.00112 | 0.204
318.15 K | 0.288 | 0.287 | 0.225 | 0.138 | 0.0017 | 0.121 | 0.28 | 0.00304 | 0.00159 | 0.259
323.15 K | 0.347 | 0.362 | 0.252 | 0.148 | 0.00231 | 0.154 | 0.355 | 0.00401 | 0.00212 | 0.328
